# Measured values taken from patent US11603546B2, “Method for preparing modified starch and use thereof” (Qilu University of Technology, priority 2020, dated 2023).
# Marks after values point to notes of the source that are not given here.
# Legend:
# [1] = tested on: mice with type II diabetes (STZ injection plus high-glucose-high-fat diet); experiment: Type II diabetes mouse model: HE staining of liver sections; type: in vivo, Kunming strain mice; conditions: diabetic mice, intervention groups (FIGS. 9 to 13)
# Description: Fifty mice were pregrouped and labeled. In the experiment, type II diabetes models were established by streptozotocin (STZ) injection plus induction by high-glucose-high-fat diet. […] The mice were randomized into five groups of 10 animals: normal group, diabetic control group, glimepiride group, RS group, and modified starch+GSPAs group; before modeling, the mice were weighed.
# The normal group was fed with normal diet for three weeks, while the remaining four groups were fed with high-glucose-high-fat diet for three weeks; then, the animals were deprived of food hut not water for 12 h; […] (which was prepared with 0.1 mol/L citric acid-sodium citrate buffer solution [pH 4.4 (4.2-4.5)] at a low temperature) was prepared when needed, and was injected intraperitoneally at a single dose of 50 mg/kg (0.5 mg/10 g) of body weight within 30 min; the mice in the normal group were given isodose citric acid-sodium citrate buffer solution and injected at a dose of 50 mg/kg every three days, during which the mice were fed with high-glucose-high-fat diet. After 72 h, the mice were deprived of food but not water for 12 h, and blood was collected from the tail vein to test the fasting blood glucose (FBG); the mice with FBG≥12 mmol/1, with obesity and polyuria were considered as the criteria for successful modeling. […]
# [2] = tested on: mice with type II diabetes (STZ injection plus high-glucose-high-fat diet); experiment: Type II diabetes mouse model: TC, TG, HDL-C, LDL-C; type: in vivo, Kunming strain mice; conditions: diabetic mice, gavage once daily, four weeks
# Description: Fifty mice were pregrouped and labeled. In the experiment, type II diabetes models were established by streptozotocin (STZ) injection plus induction by high-glucose-high-fat diet. […] The mice were randomized into five groups of 10 animals: normal group, diabetic control group, glimepiride group, RS group, and modified starch+GSPAs group; before modeling, the mice were weighed. […] The normal group was fed with normal diet for three weeks, while the remaining four groups were fed with high-glucose-high-fat diet for three weeks; then, the animals were deprived of food hut not water for 12 h; […] (which was prepared with 0.1 mol/L citric acid-sodium citrate buffer solution [pH 4.4 (4.2-4.5)] at a low temperature) was prepared when needed, and was injected intraperitoneally at a single dose of 50 mg/kg (0.5 mg/10 g) of body weight within 30 min; the mice in the normal group were given isodose citric acid-sodium citrate buffer solution and injected at a dose of 50 mg/kg every three days, during which the mice were fed with high-glucose-high-fat diet. After 72 h, the mice were deprived of food but not water for 12 h, and blood was collected from the tail vein to test the fasting blood glucose (FBG); the mice with FBG≥12 mmol/1, with obesity and polyuria were considered as the criteria for successful modeling. Ten normal and healthy mice were assigned to the normal group; the remaining successful modeled mice with type II diabetes were grouped into four groups of 10 animals according to the blood glucose level; the test period was four weeks. Specific groups are listed in Table 2: bw represents body weight. [table] Instructions for gavage dosing: The mice were administered by gavage once daily, in a volume of 0.4 mL. Also, total cholesterol (TC), triglyceride (TG), and low density lipoprotein cholesterol (LDL-C) were tested for diabetic mice, as shown in Table 3.
structure (smiles),measurement,setting,value
"CCC1=C(C)CN(C(=O)NCCc2ccc(S(=O)(=O)NC(=O)N[C@H]3CC[C@H](C)CC3)cc2)C1=O [Glimepiride, glimepiride]",HE staining of liver sections,[1],improve symptoms of disordered liver cells and massive inflammatory cell infiltration
same,High density lipid cholesterol (HDL-C),[2],2.26 ± 0.31^a mmol/L
same,LDL-C,[2],0.65 ± 0.17^b mmol/L
same,TC,[2],3.16 ± 0.37^b mmol/L
same,TG,[2],1.06 ± 0.09^b mmol/L
